From patent US20070148765A1, “Preservative-containing virus formulations” (priority 2003, published 2007)
Entries after “also recorded” stand apart in the source; their conditions may differ.

Experiments:
[1] = system: S. aureus, P. aeruginosa, E. coli, C. albicans, A. niger; experiment: Antimicrobial effectiveness (AME) testing, overall result; conditions: formulated in A195 buffer
[2] = system: adenovirus; experiment: QPA assay for adenovirus infectivity (stability of adenovirus in formulation); assay type: cell-based, adenovirus serotype 5 (Ad5); conditions: for Ad5 stability in the presence of preservative: in A195 buffer with the preservative, short-term accelerated stability, infectivity assays
Method: QPA Assay for Adenovirus Infectivity—The compatibility of preservatives with adenovirus was assessed by measuring the infectivity adenovirus using QPA assay. The QPA assay is based on the finding that the quantity of replicating adenoviral genomes, upon infection of 293 cells, is proportional to the input quantity of infectious adenovirus 24 hours post-infection (P.I.). The accumulated adenoviral genomes are purified using Qiagen 96-well Blood DNA Extraction Kit 24 hrs P.I. and quantitated using Perkin-Elmer TaqMan PCR technology. A standard curve is constructed by using the TaqMan PCR cycle threshold (CT) reflecting the quantity of accumulated adenoviral genomes due to infection and subsequent replication as a function of the input viral infectivity of standard curve material that is determined by independent TCID50 potency assay. The infectivity of samples is interpolated from the standard curve. Infectivity can be determined within 48-72 hours using this procedure. To determine the loss of adenovirus infectivity in stability samples the infectivity of the stability sample and the corresponding −70° C. control of the same formulation are determined during the same QPA run and on the same PCR plate. The loss of infectivity in the stability samples is expressed as log loss of infectivity compared to the −70° C. control.
Results—Adenovirus was formulated in A195 buffer containing preservatives (i.e., the A500 series of Table 3). The infectivity of adenovirus was measured using a Q-PCR based Potency Assay (QPA) after storage at certain temperatures (2-8, 15, 20, 25, 30, and 37° C.) and compared to the control (corresponding sample stored at −70° C.). The stability of adenovirus was quantitatively presented as “Log Loss of Adenovirus Infectivity”. Variability of the QPA assay is reported to be +/−0.15 logs.

[3] = Solubility of preservative in A195 buffer; assay type: physicochemical

SMILES | AME testing, overall result in words [1] | effects on the stability of adenovirus (log loss of infectivity, FIG. 1) ([2]; 0.5% (w/v) chlorobutanol or 0.2% (w/v) benzoic acid in A195 pH 6.8, MRKAd5pol 10^10 VP/ml, 37° C. 1-4 weeks vs −70° C.) | Ad5 stability in the presence of preservative [2] | solubility in A195 buffer [3]
CC(C)(C)CC(C)(C)c1ccc(OCCOCC[N+](C)(C)Cc2ccccc2)cc1 [benzethonium chloride] | effective antimicrobial preservatives |  |  | 
O=C(O)c1ccccc1 [benzoic acid] | failed AME testing | no significant effects | compatible with adenovirus; also recorded: compatible with Ad5 | 
OCc1ccccc1 [benzyl alcohol] | effective antimicrobial preservatives |  | very poor stability | 
Cc1cccc(O)c1 [m-cresol] | effective antimicrobial preservatives |  |  | poor solubility
Oc1ccccc1 [phenol] | effective antimicrobial preservatives |  | very unstable | 
